Legend:
[1] = biological target: T1, PiAHAS wild-type (Parietochloris incisa (Lobosphaera incisa), UniProt I3VJH2); test: PiAHAS in vitro enzyme assay, inhibition by SMM (wild type); type: biochemical; settings: wild-type AHAS; pyruvate 100 mM; 37° C., pH 7.6
T1 sequence (I3VJH2 1-707 D350G/R415C): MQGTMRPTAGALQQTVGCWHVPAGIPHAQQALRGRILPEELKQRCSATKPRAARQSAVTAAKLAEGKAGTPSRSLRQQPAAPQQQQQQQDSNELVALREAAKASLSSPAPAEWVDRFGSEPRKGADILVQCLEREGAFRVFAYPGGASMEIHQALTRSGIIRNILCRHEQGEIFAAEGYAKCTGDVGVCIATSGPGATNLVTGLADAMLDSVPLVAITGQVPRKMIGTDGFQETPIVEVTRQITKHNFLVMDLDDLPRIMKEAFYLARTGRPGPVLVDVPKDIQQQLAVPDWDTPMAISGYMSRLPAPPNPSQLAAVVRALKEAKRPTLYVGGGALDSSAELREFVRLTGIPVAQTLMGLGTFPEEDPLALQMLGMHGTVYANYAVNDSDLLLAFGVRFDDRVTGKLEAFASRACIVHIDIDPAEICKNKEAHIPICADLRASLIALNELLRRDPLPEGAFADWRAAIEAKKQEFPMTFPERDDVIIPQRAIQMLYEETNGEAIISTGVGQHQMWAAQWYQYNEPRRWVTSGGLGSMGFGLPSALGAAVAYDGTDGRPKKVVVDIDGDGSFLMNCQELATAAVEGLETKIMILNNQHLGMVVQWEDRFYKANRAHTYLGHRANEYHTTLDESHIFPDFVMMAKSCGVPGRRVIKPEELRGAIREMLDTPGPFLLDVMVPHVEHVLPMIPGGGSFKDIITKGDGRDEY
Description: (§1) To overexpress the hexahistidine (6xHis)-tagged PiAHAS genes in E. coli strain JM109, plasmids pQE-WT and pQE-MUT were used. These plasmids were constructed by inserting the BamHI-SalI fragment containing the cloned PiAHAS wt and mutant genes into plasmid pQE30 (Qiagen, Hilden, Germany). These plasmids express PiAHAS fused at its N-terminus to the pQE30 6xHis leader. pQE-WT and pQE-MUT were transformed into E. coli for expression. […] The AHAS catalytic activity was determined as previously described (Bar-Ilan A et al. Binding and activation of thiamin diphosphate in acetohydroxyacid synthase. Biochemistry (N.Y.) 2001, 40, 11946-11954). […] Km for pyruvate and Ki for SMM were determined by varying the concentration of the factor in question. Protein concentration was determined by the dye-binding method of Bradford (Bradford MM. A rapid and sensitive method for the quantitation of microgram quantities of protein utilizing the principle of protein-dye binding. Anal. Biochem. 1976, 72, 248-254), with bovine serum albumin as standard. […]
(§2) The Ki was determined to be >30×106, 7 orders of magnitude higher than that of the wild type.

[2] = biological target: T2, PiAHAS wild-type (Parietochloris incisa (Lobosphaera incisa), UniProt I3VJH2, D350G/R415C); test: as above; type: biochemical; settings: wild type; very low concentration of SMM
T2 sequence (I3VJH2 1-707 D350G/R415C): T1 sequence (I3VJH2 1-707 D350G/R415C)
Description: as §1, §2

COC(=O)c1ccccc1S(=O)(=O)NC(=O)Nc1nc(C)cc(C)n1 [SMM, sulfometuron methyl]
Ki [1]: 150 nM
inhibition of enzyme by SMM [2]: strongly inhibited
